According to patent US20240066087A1, “SUTHERLANDIA EXTRACT AND THE USE THEREOF IN THE MANUFACTURE OF A MEDICAMENT” (ACUPHARM INTERNATIONAL PROPRIETARY LIMITED, priority 2020, published 2024):

Each molecule was assayed on cultured tissue from needle biopsy, Breast DCIS papillary neoplasm (assay: dose response study with cumulative cell death on cultured patient biopsy tissue (patient 19055)). Conditions: in vitro cultured biopsy sample, patient 19055, Breast DCIS papillary neoplasm.
Format: cell-based, human
Procedure: Comparative studies were performed using Sutherlandia leaf extract in water (referred to as ACPJL35), Sutherlandia leaf extract in 50% ethanol and water solution (referred to as ACPJL28), and Sutherlandia leaf extract in 90% ethanol and water solution (referred to as ACPJL07). These extracts were compared to a number of known botanical isolates with anti-cancer activity, as well as a number of known anti-cancer drugs, using a dose response design with cumulative cell death as the dependent variable. These studies were conducted on in vitro samples of cultured tissue, taken as biopsy samples from patients as part of a standard culture and testing process done in order to optimise treatment.
Patient from whom sample was obtained was a person presenting with a diagnosis of Breast DCIS papillary neoplasm. The sample was obtained via needle biopsy, before being cultured.

| Structure (SMILES) | efficacy assessment from dose response (dose-CR curve), cumulative cell death as dependent variable |
| --- | --- |
| O=C(CCCCCCC(=O)Nc1ccccc1)NO [Vorinostat] | having potential benefit |
| COC(=O)c1ccc2c(c1)NC(=O)/C2=C(\Nc1ccc(N(C)C(=O)CN2CCN(C)CC2)cc1)c1ccccc1 [Nintedanib] | good efficacy and a positive dose response curve |
| COc1cc2c(Oc3ccc4[nH]c(C)cc4c3F)ncnc2cc1OCCCN1CCCC1 [Cediranib] | having potential benefit |
| CCC1=C[C@@H]2CN(C1)Cc1c([nH]c3ccccc13)[C@@](C(=O)OC)(c1cc3c(cc1OC)N(C)[C@H]1[C@@](O)(C(=O)OC)[C@H](OC(C)=O)[C@]4(CC)C=CCN5CC[C@]31[C@@H]54)C2 [Vinorelbine] | having potential benefit |
| O=C1c2c(O)ccc(O)c2C(=O)c2c(NCCNCCO)ccc(NCCNCCO)c21 [Mitoxantrone] | having potential benefit |
| CC(=O)O[C@H]1C(=O)[C@@]2(C)[C@H]([C@H](OC(=O)c3ccccc3)[C@]3(O)C[C@H](OC(=O)[C@H](O)[C@@H](NC(=O)c4ccccc4)c4ccccc4)C(C)=C1C3(C)C)[C@]1(OC(C)=O)CO[C@@H]1C[C@@H]2O [Paclitaxel] | having potential benefit |
| CC[C@]1(O)C[C@H]2CN(CCc3c([nH]c4ccccc34)[C@@](C(=O)OC)(c3cc4c(cc3OC)N(C=O)[C@H]3[C@@](O)(C(=O)OC)[C@H](OC(C)=O)[C@]5(CC)C=CCN6CC[C@]43[C@@H]65)C2)C1 [Vincristine] | having potential benefit |
| CC(=O)O[C@@]12CO[C@@H]1C[C@H](O)[C@@]1(C)C(=O)[C@H](O)C3=C(C)[C@@H](OC(=O)[C@H](O)[C@@H](NC(=O)OC(C)(C)C)c4ccccc4)C[C@@](O)([C@@H](OC(=O)c4ccccc4)[C@H]21)C3(C)C [Docetaxel] | having potential benefit |
| Nc1nc(Cl)nc2c1ncn2[C@@H]1O[C@H](CO)[C@@H](O)[C@@H]1F [Clofarabine] | having potential benefit |
| COc1cc2ncnc(Nc3ccc(F)c(Cl)c3)c2cc1OCCCN1CCOCC1 [Gefitinib] | having potential benefit |
